Measurements from article PMC3914206.

What was measured:
[1] = target: T1, panel of 442 kinases (Homo sapiens, UniProt Q9NYL2); assay type: binding; conditions: kinase ZAK; compound concentration 10 µM
T1 construct: purchased KINOMEscan
Excerpt: (§1) We assessed the selectivity of members of this scaffold using the KINOMEscan methodology across a near comprehensive panel of 442 kinases [[18,27]].

[2] = target: T2, panel of 442 kinases (Homo sapiens, UniProt Q9UL54); assay type: binding; conditions: kinase TAOK2; compound concentration 10 µM
T2 construct: purchased KINOMEscan
T2 sequence (Q9UL54 1-1235): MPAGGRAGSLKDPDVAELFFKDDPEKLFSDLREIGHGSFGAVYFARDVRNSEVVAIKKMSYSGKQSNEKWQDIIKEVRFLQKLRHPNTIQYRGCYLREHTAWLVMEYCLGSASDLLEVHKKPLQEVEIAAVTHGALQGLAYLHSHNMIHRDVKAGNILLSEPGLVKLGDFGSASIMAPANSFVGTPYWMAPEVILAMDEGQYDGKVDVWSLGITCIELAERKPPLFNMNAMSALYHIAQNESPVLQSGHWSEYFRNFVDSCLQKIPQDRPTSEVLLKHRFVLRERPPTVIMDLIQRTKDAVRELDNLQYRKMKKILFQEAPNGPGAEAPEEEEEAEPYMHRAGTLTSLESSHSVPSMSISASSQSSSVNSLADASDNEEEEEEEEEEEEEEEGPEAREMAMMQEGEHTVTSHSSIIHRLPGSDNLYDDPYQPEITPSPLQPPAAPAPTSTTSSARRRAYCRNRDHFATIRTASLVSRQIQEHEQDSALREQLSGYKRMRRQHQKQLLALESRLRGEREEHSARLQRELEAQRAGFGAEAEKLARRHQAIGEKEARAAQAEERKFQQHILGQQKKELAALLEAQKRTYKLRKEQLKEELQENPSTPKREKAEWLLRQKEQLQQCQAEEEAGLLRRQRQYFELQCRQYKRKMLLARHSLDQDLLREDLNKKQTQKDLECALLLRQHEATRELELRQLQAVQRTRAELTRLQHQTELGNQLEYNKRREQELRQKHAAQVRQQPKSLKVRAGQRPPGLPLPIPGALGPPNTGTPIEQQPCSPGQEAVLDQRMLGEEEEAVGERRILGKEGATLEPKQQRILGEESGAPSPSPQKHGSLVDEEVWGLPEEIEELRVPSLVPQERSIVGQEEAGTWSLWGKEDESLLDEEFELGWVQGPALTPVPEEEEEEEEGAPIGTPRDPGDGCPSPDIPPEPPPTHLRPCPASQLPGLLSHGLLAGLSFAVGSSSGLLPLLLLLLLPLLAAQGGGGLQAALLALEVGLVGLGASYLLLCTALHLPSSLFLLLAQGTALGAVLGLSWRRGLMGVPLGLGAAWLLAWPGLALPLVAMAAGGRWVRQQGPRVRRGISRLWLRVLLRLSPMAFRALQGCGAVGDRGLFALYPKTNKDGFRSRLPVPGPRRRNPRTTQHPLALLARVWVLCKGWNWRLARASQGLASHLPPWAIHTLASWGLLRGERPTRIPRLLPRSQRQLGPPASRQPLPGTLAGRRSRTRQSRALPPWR
Excerpt: as §1

T1 sequence (Q9NYL2 whole entry): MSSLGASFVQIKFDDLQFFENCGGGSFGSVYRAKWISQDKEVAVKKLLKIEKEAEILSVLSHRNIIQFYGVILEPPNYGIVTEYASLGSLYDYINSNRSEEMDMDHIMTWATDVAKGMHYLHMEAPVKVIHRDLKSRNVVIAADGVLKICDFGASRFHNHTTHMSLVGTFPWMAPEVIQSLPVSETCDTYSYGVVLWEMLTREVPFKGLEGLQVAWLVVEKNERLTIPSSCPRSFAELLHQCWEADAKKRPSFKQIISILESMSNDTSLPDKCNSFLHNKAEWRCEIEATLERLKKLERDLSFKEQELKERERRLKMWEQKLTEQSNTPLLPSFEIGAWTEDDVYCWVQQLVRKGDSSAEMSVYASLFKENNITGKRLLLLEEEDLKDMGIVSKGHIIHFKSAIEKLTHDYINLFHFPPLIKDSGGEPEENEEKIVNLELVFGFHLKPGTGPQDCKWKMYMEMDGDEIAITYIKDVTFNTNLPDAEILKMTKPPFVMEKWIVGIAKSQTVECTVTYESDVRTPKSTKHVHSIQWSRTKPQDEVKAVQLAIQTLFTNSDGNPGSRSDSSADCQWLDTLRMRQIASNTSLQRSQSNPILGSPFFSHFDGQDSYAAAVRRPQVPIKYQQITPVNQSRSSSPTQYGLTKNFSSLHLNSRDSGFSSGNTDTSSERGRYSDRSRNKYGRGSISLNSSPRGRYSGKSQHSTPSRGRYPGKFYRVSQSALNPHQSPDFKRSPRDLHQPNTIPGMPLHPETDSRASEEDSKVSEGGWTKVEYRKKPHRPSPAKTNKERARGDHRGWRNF

| SMILES | % Ctrl, ZAK [1] [% Ctrl] | % Ctrl, TAOK2 [2] [% Ctrl] |
| --- | --- | --- |
| CCOc1cc(C(=O)N2CCC(N3CCN(C)CC3)CC2)ccc1Nc1ncc2c(n1)N(C1CCCC1)c1ccccc1C(=O)N2C [Compound 26] | 100 | 78 |
| COc1cc(C(=O)N2CCC(N3CCN(C)CC3)CC2)ccc1Nc1ncc2c(n1)N(C1CCCC1)c1ccccc1C(=O)N2C [Compound 25, 11-cyclopentyl-2-((2-methoxy-4-(4-(4-methylpiperazin-1-yl)piperidine-1-carbonyl)phenyl)amino)-5-methyl-5H-benzo[e]pyrimido[5,4-b][1,4]diazepin-6(11H)-one] | 100 | 74 |
| COc1cc(C(=O)N2CCC(N3CCN(C)CC3)CC2)ccc1Nc1ncc2c(n1)N1CCc3cccc(c31)C(=O)N2C [Compound 24] | 88 | 100 |
| COc1cc(C(=O)N2CCC(N3CCN(C)CC3)CC2)ccc1Nc1ncc2c(n1)N(C)c1ccccc1C(=O)N2C [15 (LRRK2-IN-1)] | 99 | 65 |
